Reference: patent US11249070B2, “Anti-cancer drug assessment method” (TOPPAN PRINTING CO., LTD., priority 2016, dated 2022)
Read-outs that look alike come from different tables or passages of the source.

Tests used:
[1] = tested on: gastric cancer cell line NCI-N87; assay: CNT with oxaliplatin, 2D vs 3D (Example 13); format: cell-based, human; details: for CNT (%): 72 hours, measured once
Procedure: (§1) Measurements were performed once for each culture condition.

HCT116 = details: bevacizumab 2 μg per well in the combination, 72 hours
From the text: (§3) The cell structures containing cancer cells and having a vascular network structure used herein were the cell structures produced in Example 5, and the cell culture container, culture media, and bevacizumab used herein were also the same as those used in Example 5.
(§4) After the cell structures were each dispersed in the same manner as in Example 2, and the obtained dispersions were stained with trypan blue, the number of viable cancer cells was counted to calculate CNT (%).

[2] = tested on: lung cancer cell line NCI-H820; assay: CNT with oxaliplatin, 2D vs 3D (Example 12); format: cell-based, human; details: for CNT (%): 72 hours, measured once
Procedure: as §1

HT29 [3] = details: bevacizumab 2 μg per well in the combination, 72 hours
From the text: as §3, §4

HT29 [4] = details: oxaliplatin 100 μg/mL, bevacizumab 2 μg per well in combined use, 72 hours
From the text: (§5) Furthermore, HT29 cells were used as the cancer cells.
(§6) After the cell structures were each dispersed in the same manner as in Example 2, and the obtained dispersions were stained with trypan blue, the number of viable cancer cells was counted to calculate CNT (%). Measurements were repeated three times for each culture condition.

HT29 [5] = details: oxaliplatin 100 μg/mL, bevacizumab 2 μg per well in combined use
Procedure: as §5
Cell structures were produced in the same manner as in Example 5, except that HT29 cells were seeded in a Transwell cell culture insert in which a structure formed from NHDF and HUVEC was formed, centrifugation was performed to remove the liquid component, and the culture time in the CO2 incubator (37° C., 5% CO2) was changed to 24, 48, 72, or 96 hours.
as §6

HT29 [6] = assay: CNT with cetuximab and/or bevacizumab, 2D, spheroid, 3D (Example 4); format: cell-based, human; details: for CNT (%) Average value / CNT (%) Median value: cetuximab 1 mg/mL and/or bevacizumab 2 μg per well, 72 hours
From the text: Moreover, for comparison, in place of the above cell structures, structures were produced by culturing cancer cells so as to form a single layer in a general culture container (2D method), and spheroids were produced by spheroid culture of a mixture of 2×10^6 NHDF, 3×10^4 HUVEC, and 2×10^4 HT29 (spheroid method).

HT29 [7] = assay: CNT with doxorubicin, vascular network in layer shape vs scattered (Example 3); format: cell-based, human; details: doxorubicin 10 μM, 72 hours
[8] = tested on: breast cancer cell line MCF-7; assay: CNT with doxorubicin, 2D vs 3D (Example 14); format: cell-based, human; details: for CNT (%) Average value: 72 hours
From the text: The general cytotoxic anti-cancer drug to be assessed was doxorubicin (product number: 046-21523, produced by Wako Pure Chemical Industries, Ltd.).

HT29 [9] = assay: CNT with doxorubicin, cell structures with or without semipermeable membrane (Example 9); format: cell-based, human; details: doxorubicin 10 μM, 72 hours
From the text: The cell structures containing a cell layer containing cancer cells and a cell layer having a vascular network structure used herein were cell structures containing a cell layer in which two types of cells, i.e., NHDF and HUVEC, constituted a multilayer, and a cancer cell layer formed from HT29.
Separately, 2×10^4 HT29 was suspended in a suitable amount of culture medium to prepare a cancer cell suspension (step (a)). The HT29 used was previously fluorescently labeled (product number: PKH67GL, produced by SIGMA).
A cell structure 2 was obtained in the same manner as in the cell structure 1, except that a semipermeable membrane with a pore size of 0.4 μm was placed on a structure containing stromal cells, and a cancer cell suspension was seeded on the semipermeable membrane to form a cancer cell layer. […] In the cell structure 2, the cells constituting the cancer cell layer were completely separated from the cells constituting the stromal cell layer.
A cell structure 3 was obtained in the same manner as in the cell structure 1, except that a cancer cell suspension was first seeded in a Transwell cell culture insert to form a cancer cell layer, a semipermeable membrane with a pore size of 0.4 μm was placed on the cancer cell layer, and a stromal cell suspension was then seeded on the semipermeable membrane to form a stromal cell layer. […] In the cell structure 3, the cells constituting the cancer cell layer were completely separated from the cells constituting the stromal cell layer.
(§2) A cell structure 4 was obtained in the same manner as in the cell structure 2, except that a semipermeable membrane with a pore size of 8 μm was used. […] In the cell structure 4, the cells constituting the cancer cell layer and the cells constituting the stromal cell layer extended to be in contact with each other in the penetration part of the semipermeable membrane.
as §2, with “5” for “4”, “3,” for “2,”, “5,” for “4,”

[10] = tested on: human colon cancer cell line HT29; assay: CNT (remaining viable cell rate) with doxorubicin, 2D cultures vs 3D cell structures (Example 2); format: cell-based; details: doxorubicin 10 μM; for CNT (%) Average value: 72 hours
From the text: The anti-cancer drug to be assessed was doxorubicin (product number: 046-21523, produced by Wako Pure Chemical Industries, Ltd.).
After termination of the culture, cell structures in which a cancer cell layer was laminated on a layer having a vascular network structure were obtained.
Moreover, for comparison, in place of the above cell structures, structures were constructed by culturing cancer cells so as to form a single layer in a general culture container (2D method), and the resulting 2D cultures were similarly cultured in the presence of doxorubicin. A vascular network was not formed in the obtained 2D cultures even when cancer cells and vascular endothelial cells were made to coexist.
Next, a suitable amount of tris buffer solution (50 mM, pH: 7.4) was added to the Transwell cell culture insert, and the liquid component was then removed. This series of processes was repeated 3 times. […] Thereafter, all of the solution was collected, and transferred to a 1.5-mL collection tube to which 300 μL of 0.25% trypsin-EDTA solution (produced by Invitrogen) had been previously added. […] Thereafter, all of the solution was collected, and transferred to a 1.5-mL collection tube.

[11] = regardless of the oxaliplatin concentration
[12] = Spheroid, oxaliplatin 100 μg/mL

## O=C1[O][Pt]2([NH][C@@H]3CCCC[C@H]3[NH]2)[O]C1=O [Oxaliplatin, oxaliplatin]
[1]; 2D, oxaliplatin 10 μg/mL
  CNT (%): 22.0%
[1]; 2D, oxaliplatin 100 μg/mL
  CNT (%): 10.3%
[1]; 3D, oxaliplatin 10 μg/mL
  CNT (%): 45.9%
[1]; 3D, oxaliplatin 100 μg/mL
  CNT (%): 17.7%
[1]; [11]
  drug sensitivity, cell structures compared with 2D cultures: drug sensitivity was lower
HCT116; 2D, oxaliplatin 10 μg/mL
  CNT (%) Average value: 23.8%
HCT116; 2D, oxaliplatin 100 μg/mL
  CNT (%) Average value: 11.3%
HCT116; 3D, oxaliplatin 10 μg/mL
  CNT (%) Average value: 54.1%
HCT116; 3D, oxaliplatin 100 μg/mL
  CNT (%) Average value: 35.6%
HCT116; Spheroid, oxaliplatin 10 μg/mL
  CNT (%) Average value: 51.8%
HCT116; [12]
  CNT (%) Average value: 18.8%
[2]; 2D, oxaliplatin 1 μg/mL
  CNT (%): 62.9%
[2]; 2D, oxaliplatin 10 μg/mL
  CNT (%): 21.0%
[2]; 3D, oxaliplatin 1 μg/mL
  CNT (%): 78.2%
[2]; 3D, oxaliplatin 10 μg/mL
  CNT (%): 66.7%
[2]; [11]
  drug sensitivity, cell structures compared with 2D cultures: drug sensitivity was lower
HT29 [3]; 2D, oxaliplatin 10 μg/mL
  CNT (%) Average value: 39.4%
HT29 [3]; 2D, oxaliplatin 100 μg/mL
  CNT (%) Average value: 16.0%
HT29 [3]; 3D, oxaliplatin 10 μg/mL
  CNT (%) Average value: 63.6%
HT29 [3]; 3D, oxaliplatin 100 μg/mL
  CNT (%) Average value: 31.9%
HT29 [3]; Spheroid, oxaliplatin 10 μg/mL
  CNT (%) Average value: 48.2%
HT29 [3]; [12]
  CNT (%) Average value: 22.3%
HT29 [4]; HUVEC content 0.05 %, vascular network not formed
  CNT (%) Average value: 30.3%
HT29 [4]; HUVEC content 0.25 %, vascular network formed
  CNT (%) Average value: 33.4%
HT29 [4]; HUVEC content 0.5 %, vascular network formed
  CNT (%) Average value: 35.7%
HT29 [4]; HUVEC content 1.5 %, vascular network formed
  CNT (%) Average value: 33.8%
HT29 [5]; culture time 24 h after lamination of cancer cell layer, 72 hours
  CNT (%) Average value: 36.0%
HT29 [5]; culture time 48 h after lamination of cancer cell layer, 72 hours
  CNT (%) Average value: 36.3%
HT29 [5]; culture time 72 h after lamination of cancer cell layer
  CNT (%) Average value: 37.0%
HT29 [5]; culture time 96 h after lamination of cancer cell layer, 72 hours
  CNT (%) Average value: 33.8%

## bevacizumab
HT29 [6]; 2D cultures and spheroids
  CNT: about 100%
HT29 [6]; 2D
  CNT (%) Average value: 93.9%
  CNT (%) Median value: 99.3%
HT29 [6]; 3D
  CNT (%) Average value: 105.2%
  CNT (%) Median value: 112.7%
HT29 [6]; Spheroid
  CNT (%) Average value: 108.6%
  CNT (%) Median value: 113.8%
HT29 [6]; cell structures of the present Example, 3D
  CNT: about 100%

## COc1cccc2c1C(=O)c1c(O)c3c(c(O)c1C2=O)C[C@@](O)(C(=O)CO)C[C@@H]3O[C@H]1C[C@H](N)[C@H](O)[C@H](C)O1 [Doxorubicin, doxorubicin]
HT29 [7]; cell structure in which a vascular network structure is formed in a layer shape
  CNT (%) Average value: 31.22%
HT29 [7]; cell structure in which a vascular network structure is scattered in the entire structure
  CNT (%) Average value: 31.06%
[8]; 2D, Doxorubicin 1 μM
  CNT (%) Average value: 38.9%
[8]; 2D, Doxorubicin 10 μM
  CNT (%) Average value: 12.1%
[8]; 3D, Doxorubicin 1 μM
  CNT (%) Average value: 78.4%
[8]; 3D, Doxorubicin 10 μM
  CNT (%) Average value: 48.9%
[8]; regardless of the doxorubicin concentration
  drug sensitivity, cell structures compared with 2D cultures: drug sensitivity was lower
HT29 [9]; Cell structure 1 (stromal cell layer - cancer cell layer)
  CNT (%) Average value: 31.22%
HT29 [9]; Cell structure 2 (stromal cell layer - semipermeable membrane (0.4 μm) - cancer cell layer)
  CNT (%) Average value: 30.83%
HT29 [9]; Cell structure 3 (cancer cell layer - semipermeable membrane (0.4 μm) - stromal cell layer)
  CNT (%) Average value: 32.68%
HT29 [9]; Cell structure 4 (stromal cell layer - semipermeable membrane (8 μm) - cancer cell layer)
  CNT (%) Average value: 31.47%
HT29 [9]; Cell structure 5 (cancer cell layer - semipermeable membrane (8 μm) - stromal cell layer)
  CNT (%) Average value: 33.03%
[10]; 2D, HT29 2 × 10^4 only
  CNT (%) Average value: 6.87%
[10]; 2D, HUVEC 2 × 10^4 + HT29 2 × 10^4
  CNT (%) Average value: 21.40%
[10]; 2D, NHDF 2 × 10^4 + HT29 2 × 10^4
  CNT (%) Average value: 13.20%
[10]; 2D
  effectiveness in 2D culture co-cultured with fibroblasts relative to 2D culture co-cultured with vascular endothelial cells: about two
[10]; 3D cell structures vs 2D culture of only cancer cells and 2D culture of cancer cells and fibroblasts
  CNT of the cell structures relative to 2D culture: at least 5 times
[10]; 3D, NHDF 1 × 10^6 + HUVEC 3 × 10^4 + HT29 2 × 10^4
  CNT (%) Average value: 28.22%
[10]; 3D, NHDF 2 × 10^6 + HT29 2 × 10^4, no vascular network
  CNT (%) Average value: 29.77%
[10]; 3D, NHDF 2 × 10^6 + HUVEC 3 × 10^4 + HT29 2 × 10^4
  CNT (%) Average value: 31.22%
